Tested on: diabetic rats, n0STZ
Assay: Oral glucose tolerance test (OGTT) in n0STZ diabetic rats: plasmatic glycaemia and insulinaemia
Assay type: in vivo, rat
Details: for Plasmatic insulin / Plasmatic glucose / Plasmatic glucose AUC / Plasmatic insulin AUC: OGTT glucose 2 g/kg, products given 2 hours before, Compound A 12.5 mg/kg, glibenclamide 2 mg/kg; for Plasmatic glucose AUC / Plasmatic insulin AUC: AUC over 0-120 min; for effect on carbohydrate tolerance: acute administration, 12.5 mg/kg compound A or 2 mg/kg glibenclamide
Procedure: Diabetes is induced in male rats (source: Iffa Credo) by intravenous administration of streptozotocin on the day of birth.
The rats are selected according to the criterion of hyperglycaemia 170±15 mg/dl.
The animals are grouped into 5 rats per batch and divided into 4 batches
The products are administered 2 hours before the glucose tolerance test, at a rate of 12.5 mg/kg for 4-[2-(2,4-dioxothiazolidin-5-yl)ethoxy]benzonitrile, 2 mg/kg for glibenclamide and the combination of the 2 products at the doses used in monotherapy.
The glucose tolerance test (OGTT) is performed on the conscious animal and consists in administering glucose at a rate of 2 g/kg. The plasmatic glucose clearance is analysed after this glucose load, over 2 hours (0-10-20-30-45-60-90 and 120 min).
In addition to plasmatic glycaemia, insulinaemia is also determined.

## N#Cc1ccc(OCCC2SC(=O)NC2=O)cc1 (stereo not shown) [Compound A, 4-[2-(2,4-dioxothiazolidin-5-yl)ethoxy]benzonitrile]
0 min
  Plasmatic insulin: 47.2 μU/ml
0 min, 5 rats/batch
  Plasmatic glucose: 160 mg/dL
10 min
  Plasmatic glucose: 321 mg/dL
  Plasmatic insulin: 100.8 μU/ml
20 min
  Plasmatic glucose: 381 mg/dL
  Plasmatic insulin: 89.6 μU/ml
30 min
  Plasmatic glucose: 418 mg/dL
  Plasmatic insulin: 84.5 μU/ml
45 min
  Plasmatic glucose: 424 mg/dL
  Plasmatic insulin: 74.6 μU/ml
60 min
  Plasmatic glucose: 447 mg/dL
  Plasmatic insulin: 77 μU/ml
90 min
  Plasmatic glucose: 419 mg/dL
  Plasmatic insulin: 93.8 μU/ml
120 min
  Plasmatic glucose: 378 mg/dL
  Plasmatic insulin: 101.5 μU/ml
  Plasmatic glucose AUC: 47702.5
  Plasmatic insulin AUC: 10384.25
Acute 12.5 mg/kg, n0STZ rats, OGTT
  decrease observed (carbohydrate tolerance, glucose curve vs control): 6%
n0STZ rats, OGTT
  effect on carbohydrate tolerance: little or no effect

## COc1ccc(Cl)cc1C(=O)NCCc1ccc(S(=O)(=O)NC(=O)NC2CCCCC2)cc1 [Glibenclamide]
0 min
  Plasmatic insulin: 84.2 μU/ml
0 min, 5 rats/batch
  Plasmatic glucose: 138 mg/dL
10 min
  Plasmatic glucose: 312 mg/dL
  Plasmatic insulin: 116.9 μU/ml
20 min
  Plasmatic glucose: 407 mg/dL
  Plasmatic insulin: 129.4 μU/ml
30 min
  Plasmatic glucose: 470 mg/dL
  Plasmatic insulin: 105.8 μU/ml
45 min
  Plasmatic glucose: 520 mg/dL
  Plasmatic insulin: 100 μU/ml
60 min
  Plasmatic glucose: 513 mg/dL
  Plasmatic insulin: 88.3 μU/ml
90 min
  Plasmatic glucose: 507 mg/dL
  Plasmatic insulin: 92.5 μU/ml
120 min
  Plasmatic glucose: 448 mg/dL
  Plasmatic insulin: 97.5 μU/ml
  Plasmatic glucose AUC: 55027.5
  Plasmatic insulin AUC: 11930.75
Acute 2 mg/kg, n0STZ rats, OGTT
  increase observed (carbohydrate tolerance, glucose curve vs control): 6%
n0STZ rats, OGTT
  effect on carbohydrate tolerance: little or no effect

From US20040097567A1, “Pharmaceutical composition” (priority 2001, published 2004)
